Source: US20150342985A1, “COMPOSITIONS COMPRISING LITHIUM” (priority 2012, published 2015)

Experiment: Lithium isotope levels in post-mortem neocortex (BA7), quadrupole inductively coupled plasma mass spectroscopy
Source text: Lithium (Li) isotope levels have been measured in post-mortem neocortex (BA7) of human subjects having bipolar disorder, without having bipolar disorder receiving lithium treatment at time of death. Neurologically intact individuals and subjects with schizophrenia were included as controls.
Bipolar brains show a 4% shift away from 7-Li within the total lithium content. Similar fractionation is not seen in schizophrenia or neurologically intact controls.

| SMILES | shift away from 7-Li within the total lithium content (bipolar brains, FIG. 2, deviation from environmental distribution) [%] | fractionation (shift away from 7-Li) in brain (schizophrenia or neurologically intact controls) | brain penetration (relative to Li-7, stated as applicants' discovery) |
| --- | --- | --- | --- |
| [7Li] [7-Li] | 4 | not seen |  |
| [6Li] [Li-6] |  |  | better able to penetrate the brain |
